One experiment has as its target T1, cloned human dopamine D3 receptors (Homo sapiens, UniProt P35462).
T1 construct: expressed in transfected cells; membrane homogenate
In words: [N-Methyl-3H]Spiroperidol binding to cloned human dopamine D3 receptors (Protocol 1). Particulars: Table 2; read-out: D3K1. An excerpt: [N-Methyl-^3H]Spiroperidol Binding to Cloned Human Dopamine D3 Receptors
This assay measures the in vitro activity of compounds on cloned human dopamine (D3) receptors and predicts the direct dopamine-blocking properties of putative neuropsychiatric agents at human dopamine D3 receptors.
The D3 gene was isolated from a human striatal cDNA library (Stratagene). The gene was sequenced and sub-cloned into the expression vector RC/RSV (Invitrogen). CHO (Chinese Hamster Ovary) cells were stably transfected with 10 μg of the D3/RSV plasmid using the DOTAP method from Boehringer Mannheim and 72 clones that were G418 resistant were isolated. Using mRNA and binding displacement data a single high expressing clone was identified. This clone was then grown in large batches for the purpose of developing a 96 well format assay.
• 1. One plate (10 cm) with approximately 2-3 million D3 cells per plate is incubated with 1 ml of Trypsin-EDTA at room temperature for ˜2 min or until cells have lifted off plates. Four ml of Ham's F12+10% Fetal Bovine Serum+1% Penicillin/Streptomycin+G418 (400 μg/ml) medium are added to resuspend cells and 1 ml of this is added to each large plate (15 cm) containing 19 ml of the-same medium as mentioned above. • 2. The 5 large plates are incubated at 37° C.+5% CO2 for ˜3 days or until the cells are confluent. • 3. After these plates are confluent, they are split into 10 large plates. Medium is aspirated off, 2 ml of Trypsin-EDTA are added to each plate and plates are incubated at RT for 2 min or until cells have lifted off the plate. Eight ml of the F12 medium (same medium as #1 above) are added to each plate (10 ml total) to resuspend the cells and 5 ml are transferred to the 2 new plates containing 15 ml of the F12 media. • 4. The 10 large plates are incubated at 37° C.+5% CO2 for ˜2 days or until the cells are confluent. • 5. The 10 large plates are split into 60 large plates (using Trypsin-EDTA as #3 except 4 ml of F12 medium are added to resuspend cells and 1 ml is aliquoted to 6 new plates containing 19 ml of F12 medium each). • 6. Plates are incubated at […]+5% CO2 for ˜3 days or until cell are confluent. • 7. The 60 large plates are then split into 60 roller bottles (100-150 million cells/bottle). Medium is aspirated off, 2 ml of Trypsin-EDTA are added to each plate and incubated at RT for ˜2 minutes or until cells have lifted off plates. Eight ml of F12 medium are added to each plate to resuspend cells and the entire 10 ml are added to 1 roller bottle containing 90 ml of the F12 medium. • 8. The 60 roller bottles are immediately placed on their sides and transferred to the roller bottle incubator. They are incubated at 37° C.+5% CO2 for ˜3-5 days. Cells are spun at 30-40% motor speed in the Forma incubator. • 9. Medium is poured off and cells are washed 2× in PBS. • 10. Cells are then scraped off in 20 ml of PBS and the bottles are rinsed again with 5 ml of PBS to remove any remaining cells. Cells are stored on ice before membrane preparation. • 11. The yield for 60 D3 roller bottles has varied from ˜260-500 mg. • Note: All tissue culture reagents are from Gibco-BRL. C. Membrane Preparation
The cells are harvested into 250 ml centrifuge tubes with 100 volumes of cold phosphate buffered saline (PBS) and spun down (1200×G for 10 min at 4° C.). The medium is removed and 100 ml PBS are added to each centrifuge tube, cells are resuspend and spun down again. The PBS is removed and the final pellet is homogenized in an appropriate volume of 10% DMSO with a polytron on ice at a medium setting.
1. 0.5M Tris Buffer, pH 7.7 • a) 44.4 g Tris HCl 26.5 g Tris Base q.s. to 1 Liter (0.5 M Tris buffer, pH 7.7 at 37° C.) • b) make a 1:10 dilution in distilled H2O (0.05 M. Tris buffer, pH 7.7) 2. Tris Buffer Containing Physiological Salts • a) Stock buffer • NaCl 7.014 g • KCl 0.372 g • CaCl2 0.222 g • MgCl2 0.204 g • q.s. To 100 ml with 0.5 M. Tris Buffer • b) Dilute 1:10 in distilled H2O […]
T1 sequence (P35462 whole entry): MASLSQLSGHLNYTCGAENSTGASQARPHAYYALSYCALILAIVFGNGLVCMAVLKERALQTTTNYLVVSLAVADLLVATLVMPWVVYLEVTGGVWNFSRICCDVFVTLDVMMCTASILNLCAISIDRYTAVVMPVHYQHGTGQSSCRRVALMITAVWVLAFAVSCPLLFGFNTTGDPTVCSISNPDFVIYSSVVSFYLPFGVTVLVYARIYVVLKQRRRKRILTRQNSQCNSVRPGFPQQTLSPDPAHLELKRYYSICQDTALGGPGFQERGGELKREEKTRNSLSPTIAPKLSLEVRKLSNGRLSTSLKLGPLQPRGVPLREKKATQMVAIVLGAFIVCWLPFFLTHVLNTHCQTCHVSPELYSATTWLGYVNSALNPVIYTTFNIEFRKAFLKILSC
For `O=C(NCCCCN1CCN(c2c(-c3ccccc3)sc3cc(F)ccc23)CC1)c1ccc(F)cc1` [compound 815883], the Ki worked out at 0.339 µM.
Regarding `CC(=O)C1CC(CC(=O)NC/C=C\CN2CCN(c3csc4cc(C(F)(F)F)ccc34)CC2)C1(C)C` (stereo not shown) [compound 827737], the Ki was determined as 0.108 µM.
For `O=C(NCCCN1CCCN(c2csc3cc(F)ccc23)CC1)c1cccc2ccccc12` [compound 827138], the Ki came out at 0.166 µM.
Same read-out and setting: under `O=C(NCCCCN1CCN(c2c(-c3ccccc3)sc3cc(F)ccc23)CC1)c1ccc(Br)cc1` [compound 815874] stands 0.282 µM; under `CC(C)(C)c1cc(C(C)(C)C)c2oc(C(=O)NCCCCN3CCCN(c4csc5cc(F)ccc45)CC3)cc2c1` [compound 827132], 0.129 µM; under `COc1cccc2cc(C(=O)NCCCCN3CCCN(c4csc5cc(F)ccc45)CC3)oc12` [compound 827121], 0.0216 µM.
For the compound `O=C(NCCC(CO)CN1CCN(c2csc3cc(C(F)(F)F)ccc23)CC1)c1ccc2ccccc2c1` (stereo not shown) [818619ES], the Ki was found to be 0.324 µM.

The same experiment, now with this note: read-out: D3K1.
For `CC1(C)C(CNC(=O)c2cccc(C(F)(F)F)c2)C1CN1CCN(c2csc3cc(C(F)(F)F)ccc23)CC1` (stereo not shown) [compound 826278], the Ki was found to be 0.087 µM.
As for `COc1ccccc1C(=O)NCCCCN1CCN(c2c(Cl)sc3cc(F)ccc23)CC1` [compound 815066], the Ki was determined as 0.0287 µM.
The same measure, in the same setting: with `O=C(NCCCCCCN1CCN(c2csc3cc(C(F)(F)F)ccc23)CC1)c1c[nH]c2ccccc12` [compound 826740] the figure was 0.044 µM; with `CCCCOc1ccc(C(=O)NCCCCN2CCN(c3c(Cl)sc4cc(C(F)(F)F)ccc34)CC2)cc1` [compound 815564], 0.159 µM.
As to `O=C(NCCCCN1CCN(c2csc3cc(C(F)(F)F)ccc23)CC1)C1CCCC1` [compound 815559], the Ki was 0.0135 µM.
Same read-out and setting: under `O=C(NC/C=C\CN1CCN(c2csc3cc(C(F)(F)F)ccc23)CC1)c1cccc(F)c1` [compound 826342] stands 0.047 µM; under `O=C(NC/C=C/CN1CCN(c2csc3cc(C(F)(F)F)ccc23)CC1)c1cc(F)cc(F)c1` [compound 827716], 0.098 µM; under `COc1cc(OC)cc(C(=O)NCCCCCN2CCN(c3csc4cc(C(F)(F)F)ccc34)CC2)c1` [compound 826766], 0.011 µM.
On the same count and under the same terms, under `CC1(C)C(CNC(=O)c2ccccc2)C1CN1CCN(c2csc3cc(C(F)(F)F)ccc23)CC1` (stereo not shown) [compound 826275] stands 0.092 µM; under `O=C(NC/C=C\CN1CCN(c2csc3cc(C(F)(F)F)ccc23)CC1)C1CCCC1` [compound 826334], 0.021 µM.
The same measure, in the same setting: under `O=C(NC/C=C\CN1CCN(c2csc3cc(C(F)(F)F)ccc23)CC1)c1cccc(C(F)(F)F)c1` [compound 826346] stands 0.17 µM.

Staying with this experiment, now noted: the 13th table, unit inferred; read-out: D3Ki.
For the compound `O=C(NCCCCCN1CCC(c2noc3ccsc23)CC1)c1cccc(Cl)c1` [compound 816214], the Ki stood at 0.264 µM.
Same read-out and setting: under `O=C(NCCCCCN1CCCN(c2csc3cc(F)ccc23)CC1)c1c2ccccc2cc2ccccc12` [S982542] stands 0.057 µM; under `O=C(NCCCCN1CCCN(c2csc3cc(C(F)(F)F)ccc23)CC1)c1cccc2[nH]ccc12` [S980650], 0.043 µM.
Regarding `O=C(NCCCCN1CCCN(c2csc3cc(F)ccc23)CC1)c1cc2ccccc2o1` [S977819], the Ki worked out at 0.00321 µM.
`O=C(NCCCCN1CCCN(c2csc3cc(C(F)(F)F)ccc23)CC1)c1cccc(Cl)c1` [S980628]: the Ki was found to be 0.11 µM.
The same measure, in the same setting: under `O=C(Cc1ccc(Cl)cc1)NCCCCN1CCCN(c2csc3cc(F)ccc23)CC1` [S982509] stands 0.0128 µM; under `O=C(NCCCCCN1CCCN(c2csc3cc(F)ccc23)CC1)c1c[nH]c2ccccc12` [S984507], 0.062 µM.

Still in this experiment, the particulars now being: the 14th table; read-out: D3 Ki.
For the compound `O=C(NCCCCCN1CCN(c2csc3cc(F)ccc23)CC1)c1cccc(Cl)c1` [compound 826775], the Ki worked out at 0.00624 µM.
Same read-out and setting: under `O=C(NCCCCCCN1CCN(c2csc3cc(C(F)(F)F)ccc23)CC1)c1c[nH]c2ccccc12` [compound 826740] stands 0.044 µM.
Still for that read-out and setting: under `COc1cc(OC)cc(C(=O)NCCCCCN2CCN(c3csc4cc(F)ccc34)CC2)c1` [compound 826776] stands 0.00127 µM; under `O=C(NCCCCCN1CCN(c2csc3cc(F)ccc23)CC1)c1n[nH]c2ccccc12` [compound 826791], 0.0119 µM.
Same read-out and setting: with `COc1cc(OC)cc(C(=O)NCCCCCN2CCN(c3csc4cc(C(F)(F)F)ccc34)CC2)c1` [compound 826766] the figure was 0.011 µM; with `O=C(NCCCCCN1CCN(c2csc3cc(F)ccc23)CC1)c1c[nH]c2ccccc12` [compound 826787], 0.00119 µM.

The experiment is the same for the next values; noted with them: the 15th table; read-out: D3 Ki.
Consider `O=C(NCCCCN1C2CCC1CC(c1noc3ccccc13)C2)c1cccc2ccccc12` (stereo not shown) [compound 816538], for which the Ki was 0.178 µM.
For `O=C(NCCCCN1C2CCC1CC(c1noc3ccccc13)C2)c1ccccc1[N+](=O)[O-]` (stereo not shown) [compound 816537], the Ki stood at 0.411 µM.
Regarding `COc1ccccc1C(=O)NCCCCN1C2CCC1CC(c1noc3ccccc13)C2` (stereo not shown) [compound 816525], the Ki is 0.148 µM.
With `O=C(NCCCCN1C2CCC1CC(c1noc3cc(F)ccc13)C2)c1cccc(F)c1F` (stereo not shown) [compound 816329], the Ki was 0.356 µM.
In the case of `COc1ccc(C(=O)NCCCCN2C3CCC2CC(c2noc4ccccc24)C3)cc1` (stereo not shown) [compound 816534], the Ki is 0.149 µM.

Staying with this experiment, now noted: the 16th table; read-out: D3 Ki.
Consider `O=C(NCCCN1CCCN(c2csc3cc(F)ccc23)CC1)c1cccc2ccccc12` [compound 827138], for which the Ki amounted to 0.166 µM.
Still for that read-out and setting: under `CC(C)(C)c1cc(C(C)(C)C)c2oc(C(=O)NCCCCN3CCCN(c4csc5cc(F)ccc45)CC3)cc2c1` [compound 827132] stands 0.129 µM; under `COc1cccc2cc(C(=O)NCCCCN3CCCN(c4csc5cc(F)ccc45)CC3)oc12` [compound 827121], 0.0216 µM.

The experiment is the same for the next values; noted with them: the 17th table; read-out: D3 Ki.
In the case of `O=C(NCC1CC1CN1CCCN(c2csc3cc(F)ccc23)CC1)c1cc2ccccc2s1` (racemic) [compound 830407], the Ki is 0.0104 µM.

The same experiment, now with this note: the 19th table; read-out: D3 Ki.
On to `COc1cccc(C(=O)Nc2ccc(CN3CCN(c4csc5cc(F)ccc45)CC3)cc2)c1` [compound 822209], for which the Ki stood at 0.36 µM.

The experiment is the same for the next values; noted with them: the 21st table; read-out: D3 Ki.
In the case of `C[C@@H]1CN(c2csc3cc(C(F)(F)F)ccc23)C[C@H](C)N1CCCCNC(=O)c1cccnc1Cl` [compound 826938], the Ki is 0.175 µM.
`COc1ccc(C(=O)NCCCCN2[C@H](C)CN(c3csc4cc(F)ccc34)C[C@@H]2C)cc1OC` [compound 826940]: the Ki is 0.0492 µM.

Staying with this experiment, now noted: the 22nd table; read-out: D3 Ki.
Consider `O=C(NCCCCN1CCN(c2noc3ccsc23)CC1)c1cc2ccccc2s1` [compound 829681], for which the Ki came out at 0.0177 µM.
As to `O=C(NCCCCN1CCN(c2noc3ccsc23)CC1)c1ccc2[nH]ccc2c1` [compound 829683], the Ki came out at 0.0375 µM.
Consider `O=C(NCCCCN1CCN(c2noc3ccsc23)CC1)c1cnc2ccccc2n1` [compound 829688], for which the Ki was determined as 0.673 µM.
In the case of `CCCCc1ccc(C(=O)NCCCCN2CCN(c3noc4ccsc34)CC2)cc1` [compound 829685], the Ki was 0.149 µM.
On the same count and under the same terms, under `Cc1ccc(C(=O)NCCCCN2CCN(c3nn(C(=O)c4ccc(C)cc4)c4ccsc34)CC2)cc1` [compound 825147] stands 0.0627 µM.

The same experiment, now with this note: the 23rd table; read-out: D3 Ki.
For the compound `CC[C@H]1CC[C@H](NC[C@@H]2C[C@H]2CN2CCN(c3ccc(C)cc3C)CC2)CC1` [compound 832266], the Ki stood at 0.0296 µM.
Turning to `FC(F)(F)c1ccc2c(N3CCN(C[C@@H]4C[C@H]4CNCCSc4ccc(Cl)cc4)CC3)csc2c1` [compound 832388], the Ki amounted to 0.0719 µM.

The same experiment, now with this note: the 24th table; read-out: D3 Ki.
As for `CC(C)S(=O)(=O)NCC1CC1CN1CCC(c2noc3ccsc23)CC1` (stereo not shown) [compound 831366], the Ki is 0.113 µM.
Still for that read-out and setting: under `O=S(=O)(NCC1CC1CN1CCC(c2noc3ccsc23)CC1)c1ccc(F)cc1` (stereo not shown) [compound 831363] stands 0.0363 µM.

The values above are taken from patent US7550469B2, “Heterocyclic amide derivatives and their use as dopamine D3 receptor ligands” (Aventis Pharmaceuticals Inc., priority 2001, dated 2009).
